Results on 40 compounds are retold here after patent US7803801B2, “Aminopyridine compounds having Syk inhibitory activity” (Japan Tobacco, Inc., priority 2005, dated 2010).

The test system of assay [1] is cultured human mast cells. The assay can be described thus: Degranulation inhibition test using cultured human mast cells (IgE cross-linking, β-Hexosaminidase release). Type of assay: cell-based. Conditions: Mast cell, cultured human mast cells, read-out: human degranulation ave. IC50. In a few lines:
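Degranulation was triggered by anti-hIgE (10 μg/mL final, 30 min, 37 °C) after a 10-min compound pretreatment (DMSO 0.1%) of cord-blood CD34+-derived mast cells primed 5 days with IL-4 and IgE. β-Hexosaminidase in supernatant was measured with p-nitrophenyl-GlcNAc substrate (A405), expressed against water-lysed total; IC50 (M).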

In assay [2] the target is GST-Syk Full Protein (human) (Homo sapiens, UniProt P43405). The assay can be described thus: Syk kinase inhibition test (HTRF method). Type of assay: biochemical. The procedure, abridged: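 HTRF read-out: after EDTA termination and 1 h with XL665-streptavidin and Eu-anti-phosphotyrosine, the 665/620 nm ratio was measured. The reaction ran 30 min at 20–25 °C with final 6.4 nM human GST-Syk, 250 nM biotinylated peptide, 100 μM ATP, pH 7.0 HEPES buffer, 2% DMSO.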
On the technique in general: TR-FRET usually uses a lanthanide donor and a delayed reading to cut background.

The mark [3] stands for this setting: Tables 1-x, compounds A, read-out: sykHTRF ave IC50.
The mark [4] stands for this setting: anti-hIgE stimulation, β-Hexosaminidase index, average.
Setting [5] is: HTRF, 100 μM ATP, 30 min room temperature, average, read-out: sykHTRF ave IC50.
Setting [6] is: Tables 2-x, thiophene compounds B.
[7] abbreviates: Tables 2-x, thiophene compounds B, read-out: sykHTRK ave IC50.

Structures are written as SMILES. pIC50: −log10 of the molar value. Where a name gives a salt, the structure may show the parent alone. Read-outs that look alike come from different tables or passages of the source.

For orientation: pIC50 means the negative decadic logarithm of the IC50, by convention in mol/L. Consider `Cc1ccnc(Nc2cccc(-c3cnc(N4CCCC(C(=O)NCCO)C4)s3)n2)c1` (centres unmarked) [Compound A-478, N-(2-hydroxyethyl)-1-{5-[6-(4-methylpyridin-2-ylamino)pyridin-2-yl]thiazol-2-yl}piperidine-3-carboxamide], for which the pIC50 in assay [1] (Tables 1-x, compounds A) is 6.00 to 7.00; in assay [2] (setting [3]), more than 7.00.
Consider `Cc1ccnc(Nc2cccc(-c3cnc(CNCCC(=O)O)s3)n2)c1` [Compound A-165], for which the pIC50 in assay [1] (setting [4]) is less than 6.00; in assay [2] (setting [5]), 6.00 to 7.00.
For `CCOC(=O)C1CCN(Cc2ncc(-c3cccc(Nc4cc(C)ccn4)n3)s2)CC1` [Compound A-167], the pIC50 in assay [1] (setting [4]) was less than 6.00; in assay [2] (setting [5]), 6.00 to 7.00.
As for `COC(CN(C)c1ncc(-c2cccc(Nc3cc(C)ccn3)n2)s1)OC` [Compound A-457, N-(2,2-dimethoxyethyl)-N-methyl-N-{5-[6-(4-methylpyridin-2-ylamino)pyridin-2-yl]thiazol-2-yl}amine], the pIC50 is 6.00 to 7.00 in assay [1] (Tables 1-x, compounds A) and more than 7.00 in assay [2] (setting [3]).
On to `CCOC(=O)Cc1ccnc(Nc2cccc(-c3ccc(C(C)=O)s3)n2)c1` [Compound B-52, {2-[6-(5-acetylthiophen-2-yl)pyridin-2-ylamino]pyridin-4-yl}acetic acid ethyl ester], for which the results for the pIC50 in assay [1] (setting [6]) and in assay [2] (setting [7]) were less than 6.00 and more than 7.00, respectively.
`Cc1ccnc(Nc2cccc(-c3cnc(N4CCN(CC(N)=O)C(=O)C4)s3)n2)c1` [Compound A-465, 2-(4-{5-[6-(4-methylpyridin-2-ylamino)pyridin-2-yl]thiazol-2-yl}-2-oxopiperazin-1-yl)acetamide]: the pIC50 in assay [1] (Tables 1-x, compounds A) was 6.00 to 7.00; in assay [2] (setting [3]), more than 7.00.
With `O=C(O)CC1CCN(c2ncc(-c3cccc(Nc4ccccn4)n3)s2)CC1` [Compound A-573, (1-{5-[6-(pyridin-2-ylamino)pyridin-2-yl]thiazol-2-yl}piperidin-4-yl)acetic acid dihydrochloride], the pIC50 in assay [1] (Tables 1-x, compounds A) was less than 6.00; in assay [2] (setting [3]), more than 7.00.
Turning to `Cc1ccnc(Nc2cccc(-c3cnc(CCC4CCN(C(=O)C5CCC(O)CC5)CC4)s3)n2)c1` (centres unmarked) [Compound A-294], the pIC50 is less than 6.00 in assay [1] (setting [4]) and 6.00 to 7.00 in assay [2] (setting [5]).
Regarding `COC(=O)[C@H]1CC[C@H](c2ncc(-c3cccc(Nc4cc(Cl)ccn4)n3)s2)CC1` [Compound A-203], the pIC50 in assay [1] (setting [4]) and in assay [2] (setting [5]) was 6.00 to 7.00 each time.
With `CC(=O)N[C@@H](C)c1ncc(-c2cccc(Nc3cc(CC(=O)O)ccn3)n2)s1` [Compound A-331], the pIC50 in assay [1] (setting [4]) and in assay [2] (setting [5]) was less than 6.00 each time.
Turning to `Cc1ccnc(Nc2cccc(-c3cnc(N(C)C4CCNCC4)s3)n2)c1` [Compound A-452, N-methyl-N-{5-[6-(4-methylpyridin-2-ylamino)pyridin-2-yl]thiazol-2-yl}-N-piperidin-4-ylamine], the pIC50 in assay [1] (Tables 1-x, compounds A) was less than 6.00; in assay [2] (setting [3]), more than 7.00.
For the compound `Cc1ccnc(Nc2cccc(-c3cnc([C@H]4CC[C@H](C(=O)N5CCC(CO)CC5)CC4)s3)n2)c1` [Compound A-242], the pIC50 in assay [1] (setting [4]) and in assay [2] (setting [5]) was 6.00 to 7.00 in each case.
For `Cc1ccnc(Nc2cccc(-c3cnc(CN(C)C(=O)C4CC4)s3)n2)c1` [Compound A-358], the pIC50 in assay [1] (setting [4]) and in assay [2] (setting [5]) was 6.00 to 7.00 each time.
Regarding `CC(=O)c1sc(-c2cccc(Nc3cc(C)ccn3)n2)cc1C` [Compound B-40], the pIC50 in assay [1] (setting [6]) was less than 6.00; in assay [2] (setting [7]), 6.00 to 7.00.
Consider `Cc1ccnc(Nc2cccc(-c3ccc(C(=O)N4CCC[C@H]4CO)s3)n2)c1` [Compound B-80], for which the pIC50 in assay [1] (setting [6]) and in assay [2] (setting [7]) was 6.00 to 7.00 each time.
Turning to `Cc1ccnc(Nc2cccc(-c3cnc(N4CCN(S(N)(=O)=O)CC4)s3)n2)c1` [Compound A-421, 4-{5-[6-(4-methylpyridin-2-ylamino)pyridin-2-yl]thiazol-2-yl}piperazine-1-sulfonamide], the pIC50 in assay [1] (Tables 1-x, compounds A) is 6.00 to 7.00; in assay [2] (setting [3]), more than 7.00.
Regarding `CC(=NO)c1ncc(-c2cccc(Nc3cc(C)ccn3)n2)s1` [Compound A-30, 1-{5-[6-(4-methylpyridin-2-ylamino)pyridin-2-yl]thiazol-2-yl}ethanone oxime], the pIC50 in assay [1] (setting [4]) was 6.00 to 7.00; in assay [2] (setting [5]) it was more than 7.00.
Take `Cc1ccnc(Nc2cccc(-c3ccc(C(=O)NC(C)(C)CO)s3)n2)c1` [Compound B-72]: the pIC50 in assay [1] (setting [6]) and in assay [2] (setting [7]) was 6.00 to 7.00 throughout.
As for `Cc1ccnc(Nc2cccc(-c3ccc(CN(C)C)s3)n2)c1` [Compound B-14], the pIC50 in assay [1] (setting [6]) and in assay [2] (setting [7]) was 6.00 to 7.00 in each case.
Take `COc1ccnc(Nc2cccc(-c3cnc([C@H]4CC[C@H](C(=O)O)CC4)s3)n2)c1` [Compound A-188, trans-4-{5-[6-(4-methoxypyridin-2-ylamino)pyridin-2-yl]thiazol-2-yl}cyclohexanecarboxylic acid]: the pIC50 is 6.00 to 7.00 in assay [1] (setting [4]) and more than 7.00 in assay [2] (setting [5]).
As for `CC(=O)c1ncc(-c2cccc(Nc3cc(C)ccn3)n2)s1` [Compound A-27, 1-{5-[6-(4-methylpyridin-2-ylamino)pyridin-2-yl]thiazol-2-yl}ethanone], the pIC50 in assay [1] (setting [4]) is 6.00 to 7.00; in assay [2] (setting [5]), more than 7.00.
The corresponding values for `O=C([C@H]1CC[C@H](c2ncc(-c3cccc(Nc4cc(Cl)ccn4)n3)s2)CC1)N1CCC(O)CC1` [Compound A-297, (trans-4-{5-[6-(4-chloropyridin-2-ylamino)pyridin-2-yl]thiazol-2-yl}cyclohexyl)-(4-hydroxypiperidin-1-yl)metanone] are 6.00 to 7.00 and more than 7.00.
In the case of `Cc1ccnc(Nc2cccc(-c3cnc(N4CCC(C)(C(=O)NCCO)CC4)s3)n2)c1` [Compound A-503, N-(2-hydroxyethyl)-4-methyl-1-{5-[6-(4-methylpyridin-2-ylamino)pyridin-2-yl]thiazol-2-yl}-piperidine-4-carboxamide], the pIC50 in assay [1] (Tables 1-x, compounds A) is 6.00 to 7.00; in assay [2] (setting [3]), more than 7.00.
In the case of `Cc1ccnc(Nc2cccc(-c3cnc(N(C)Cc4ccc(O)cc4)s3)n2)c1` [Compound A-471, 4-[(N-methyl-N-{5-[6-(4-methylpyridin-2-ylamino)pyridin-2-yl]thiazol-2-yl}amino)methyl]phenol], the pIC50 in assay [1] (Tables 1-x, compounds A) was 6.00 to 7.00; in assay [2] (setting [3]), more than 7.00.
As to `Cc1ccnc(Nc2cccc(-c3cnc([C@H](C)NC(=O)CC(=O)O)s3)n2)c1` [Compound A-123], the pIC50 was less than 6.00 in assay [1] (setting [4]) and 6.00 to 7.00 in assay [2] (setting [5]).
As to `CC(=O)Nc1ccc(C[C@H](NC(C)=O)c2ncc(-c3cccc(Nc4cc(C)ccn4)n3)s2)cc1` [Compound A-179], the pIC50 in assay [1] (setting [4]) and in assay [2] (setting [5]) was 6.00 to 7.00 in each case.
As for `CC(=O)NCC(=O)N[C@@H](C)c1ncc(-c2cccc(Nc3cc(C)ccn3)n2)s1` [Compound A-355], the pIC50 was less than 6.00 in assay [1] (setting [4]) and 6.00 to 7.00 in assay [2] (setting [5]).
As for `Cc1ccnc(Nc2cccc(-c3cnc(CNC(=O)CO)s3)n2)c1` [Compound A-201], the pIC50 in assay [1] (setting [4]) and in assay [2] (setting [5]) was 6.00 to 7.00 in each case.
Regarding `Cc1ccnc(Nc2cccc(-c3cnc(CCC4CCNCC4)s3)n2)c1` [Compound A-258, N-(4-methylpyridin-2-yl)-N-{6-[2-(2-piperidin-4-ylethyl)thiazol-5-yl]pyridin-2-yl}amine], the figures for the negative logarithm of the IC50 (pIC50) in assay [1] (setting [4]) and in assay [2] (setting [5]) were less than 6.00 and more than 7.00, respectively.
The corresponding values for `Cc1ccnc(Nc2cccc(-c3cnc(C4CCN(CCO)CC4)s3)n2)c1` [Compound A-189] are 6.00 to 7.00 and 6.00 to 7.00.
For `CCC(=O)c1ccc(-c2cccc(Nc3cc(C)ccn3)n2)s1` [Compound B-48], the pIC50 was less than 6.00 in assay [1] (setting [6]) and 6.00 to 7.00 in assay [2] (setting [7]).
For `Cc1ccnc(Nc2cccc(-c3cnc(CN4CCNCC4)s3)n2)c1` [Compound A-194, N-(4-methylpyridin-2-yl)-N-{6-[2-(piperazin-1-ylmethyl)thiazol-5-yl]pyridin-2-yl}amine], the pIC50 was 6.00 to 7.00 in assay [1] (setting [4]) and more than 7.00 in assay [2] (setting [5]).
The corresponding values for `COC(=O)N(C)Cc1ncc(-c2cccc(Nc3cc(C)ccn3)n2)s1` [Compound A-356] are 6.00 to 7.00 and 6.00 to 7.00.
With `Cc1ccnc(Nc2cccc(-c3cnc([C@H](C)NC(=O)C4CC4)s3)n2)c1` [Compound A-141], the negative-log IC50 (pIC50) in assay [1] (setting [4]) and in assay [2] (setting [5]) was 6.00 to 7.00 in each case.
Take `Cc1ccnc(Nc2cccc(-c3cnc(CCC4CCN(C(=O)C5CCC(=O)CC5)CC4)s3)n2)c1` [Compound A-293]: the pIC50 in assay [1] (setting [4]) was less than 6.00; in assay [2] (setting [5]) it was 6.00 to 7.00.
On to `Cc1ccnc(Nc2cccc(-c3ccc(-c4noc(=O)[nH]4)s3)n2)c1` [Compound B-61], for which the pIC50 in assay [1] (setting [6]) was less than 6.00; in assay [2] (setting [7]), 6.00 to 7.00.
As to `COc1ccc(C[C@H](NC(C)=O)c2ncc(-c3cccc(Nc4cc(C)ccn4)n3)s2)cc1OC` [Compound A-139], the pIC50 was less than 6.00 in assay [1] (setting [4]) and 6.00 to 7.00 in assay [2] (setting [5]).
`CC(=O)OC(C)c1ccc(-c2cccc(Nc3cc(C)ccn3)n2)s1` (centres unmarked) [Compound B-4, 1-{5-[6-(4-methylpyridin-2-ylamino)pyridin-2-yl]thiophen-2-yl}ethyl acetate acetic acid ester]: the figures for the pIC50 in assay [1] (setting [6]) and in assay [2] (setting [7]) were less than 6.00 and 6.00 to 7.00, respectively.
As for `Cc1ccnc(Nc2cccc(-c3cnc(C4CCCN(S(C)(=O)=O)C4)s3)n2)c1` (centres unmarked) [Compound A-392], the pIC50 in assay [1] (Tables 1-x, compounds A) is 6.00 to 7.00; in assay [2] (setting [3]) it was 6.00 to 7.00.
For `CNC(=O)Cc1ccnc(Nc2cccc(-c3cnc([C@@H]4CCC(=O)N4)s3)n2)c1` [Compound A-342], the pIC50 in assay [1] (setting [4]) and in assay [2] (setting [5]) was less than 6.00 throughout.
